Laboratory results reported in patent US20070208040A1, “A2A ADENOSINE RECEPTOR ANTAGONISTS” (priority 2006, published 2007).

Target: A2A adenosine receptor (UniProt P29274)
Assay: A2A radioligand binding assay (displacement of 3H-MSX-2)
Design: species or system human
Details: displacement of 2 nM 3H-MSX-2 from 15 ug A2A membrane, 23° C., 2 hours
Source text: A tritiated adenosine A2A antagonist, 3-(3-hydroxypropyl)-7-methyl-8-(m-methoxystyryl)-1-propargylxanthine, (3H-MSX-2, specific activity: 80 Ci/mmol), was purchased from American Radiolabeled Chemicals, Inc (St. Louis, Mo.). A tritiated adenosine A1 antagonist, 1,3-Dipropyl-8-cyclopentylxanthine ([^3H]DPCPX, specific activity: 120 Ci/mmol) was purchased from Perkin Elmer (Boston, Mass.). A tritiated adenosine A2a antagonist, 4-(2-[7-amino-2-(2-furyl)[1,2,4]triazolo[2,3-a][1,3,5]triazin-5-ylamino]ethyl)phenol ([^3H]ZM241385 specific activity: 27.4 Ci/mmol) was purchased from American Radiolabeled Chemicals, Inc (St. Louis, Mo.). Adenosine Deaminase (ADA) was purchased from Roche Molecular Biochemicals (Nutley, N.J.). GTP was purchased from Sigma. Concentrated stock solution (10 mM) of compounds was dissolved in dimethylsulfoxide (DMSO), stored at −20° C., and diluted in Tris-EDTA buffer (50 mM Tris and 1 mM EDTA, 10 mM MgCl2, pH 7.4) for use in experiments. The final content of dimethylsulfoxide in Tris-EDTA buffer during experiments was not more than 1%. Male Sprague Dawley rats, weighted 250-400 g, 8-10 weeks old, were purchased from Charles River Labs (Wilmington, Mass.).
HEK293 (Human Embryonic Kidney 293) cells stably expressing human A2A adenosine receptor or human A2B adenosine receptor were maintained in DMEM supplemented with 10% fetal bovine serum, 2 mM L-glutamine, 100 IU/ml penicillin, 50 μg/ml streptomycin and 2 μg/ml puromycin. CHO (Chinese Hamster Ovary) cells stably expressing human A1 adenosine receptor or human A3 adenosine receptor were maintained in F12K medium supplemented with 10% fetal bovine serum, 2 mM L-glutamine, 100 IU penicillin, 50 μg streptomycin and 8 μg/ml puromycin. PC12 (rat pheochromocytoma) cells were cultured in F12K medium supplemented with 10% horse serum and 2.5% fetal bovine serum, 2 mM L-glutamine, 100 IU/ml penicillin, and 50 μg/ml streptomycin. All cells were maintained at 37° C. in a humidified 5% CO2/95% air incubator and recultivated 2 times per week.
Cultured cells in 150 mm^2 dishes were washed once with PBS, detached by scrapping, collected with buffer A (10 mM HEPES, 10 mM EDTA, pH 7.4) containing protease inhibitor cocktail. Cells were then homogenized by a handheld homogenizer at a speed of 4.5 for 1 min. The homogenate was centrifuged by a Beckman ultracentrifuge at a speed of 29,000 × g for 15 min. The pellets were resuspended in buffer HE (10 mM HEPES, 1 mM EDTA, pH 7.4, with protease inhibitor cocktail), centrifuged again at 29,000 × g for 15 min. The crude membrane was resuspended using buffer HE, and protein concentration was measured by the method of Lowery with BSA as standard. Similar procedures were used for membrane preparation for fresh rat tissues. All experimental procedures were done at 4° C. Membranes were aliquot and kept at −80° C.
The binding assays utilized 15 ug of A2A membrane (human recombinant A2A membrane, rat striatal membrane, or PC 12 cell membrane) that had been treated with adenosine deaminase and 50 mM Tris-EDTA buffer (pH=7.4) followed by mixing 2 μL of serially diluted DMSO stock solution of the compounds of this invention at concentrations ranging from 10 μM to 0.1 nM or the control received 2 μL of DMSO alone, then the tritiated antagonist 3-(3-hydroxypropyl)-7-methyl-8-(m-methoxystyryl)-1-propargylxanthine (^3H-MSX-2) in Tris-EDTA buffer (50 mM Tris, 1 mM EDTA, 10 mM MgCl2, pH of 7.4) was added to achieve a final concentration of 2 nM. After incubation at 23° C. for 2 hours, the solutions were filtered using a membrane harvester with multiple washing of the membranes (3×). The filter plates were counted in scintillation cocktail affording the amount of displacement ^3H-MSX-2 by the competitive binding compositions of this invention. Radioligand binding data was analyzed using GraphPad Prism version 4.0 (San Diego, Calif.). […]

Ki | Structure (SMILES)
48 nM | Cc1c(C2=N[C@@H](C)CO2)sc2[nH]c(=O)n(CC(C)C)c(=O)c12 [LI, 6-((4S)-4-methyl(1,3-oxazolin-2-yl))-5-methyl-3-(2-methylpropyl)-1,3-dihydrothiopheno[2,3-d]pyrimidine-2,4-dione]
559 nM | CCn1c(=O)[nH]c2sc(-c3ccsc3)c(C)c2c1=O [XII, 3-ethyl-5-methyl-6-(3-thienyl)-1,3-dihydrothiopheno[2,3-d]pyrimidine-2,4-dione]
195 nM | Cc1c(-c2cccs2)sc2[nH]c(=O)n(CC3CC3)c(=O)c12 [XXXV, 3-(cyclopropylmethyl)-5-methyl-6-(2-thienyl)-1,3-dihydrothiopheno[2,3-d]pyrimidine-2,4-dione]
720 nM | C#CCn1c(=O)c2c(C)csc2n(C)c1=O [LII, 1,5-dimethyl-3-prop-2-ynyl-1,3-dihydrothiopheno[2,3-d]pyrimidine-2,4-dione]
300 nM | C#CCn1c(=O)[nH]c2sc(C(=O)OCC)c(C)c2c1=O [XXV, ethyl 5-methyl-2,4-dioxo-3-prop-2-ynyl-1,3-dihydrothiopheno[2,3-d]pyrimidine-6-carboxylate]
96 nM | Cc1c(-c2cocn2)sc2[nH]c(=O)n(CC(C)C)c(=O)c12 [XXIII, 5-methyl-3-(2-methylpropyl)-6-(1,3-oxazol-4-yl)-1,3-dihydrothiopheno[2,3-d]pyrimidine-2,4-dione]
93 nM | CCn1c(=O)[nH]c2sc(C3=N[C@@H](C)CO3)c(C)c2c1=O [XLIII, 6-((4S)-4-methyl(1,3-oxazolin-2-yl))-3-ethyl-5-methyl-1,3-dihydrothiopheno[2,3-d]pyrimidine-2,4-dione]
76 nM | Cc1c(-c2ccco2)sc2[nH]c(=O)n(CC(C)C)c(=O)c12 [Example I, 6-(2-furyl)-5-methyl-3-(2-methylpropyl)-1,3-dihydrothiopheno[2,3-d]pyrimidine-2,4-dione]
199 nM | CCn1c(=O)c2c(C)c(-c3nccs3)sc2n(C)c1=O [XLVIII, 3-ethyl-1,5-dimethyl-6-(1,3-thiazol-2-yl)-1,3-dihydrothiopheno[2,3-d]pyrimidine-2,4-dione]
457 nM | CCn1c(=O)n(CC(C)C)c(=O)c2c(C)c(-c3ccco3)sc21 [XLIV, 1-ethyl-6-(2-furyl)-5-methyl-3-(2-methylpropyl)-1,3-dihydrothiopheno[2,3-d]pyrimidine-2,4-dione]
137 nM | CCn1c(=O)[nH]c2scc(-c3ccco3)c2c1=O [VI, 3-ethyl-5-(2-furyl)-1,3-dihydrothiopheno[2,3-d]pyrimidine-2,4-dione]
546 nM | CCn1c(=O)c2c(C)c(-c3ccoc3)sc2n(C)c1=O [XLVI, 3-ethyl-6-(3-furyl)-1,5-dimethyl-1,3-dihydrothiopheno[2,3-d]pyrimidine-2,4-dione]
304 nM | Cc1c(C2=N[C@@H](C)CO2)sc2c1c(=O)n(CC(C)C)c(=O)n2C [LIII, 6-((4S)-4-methyl(1,3-oxazolin-2-yl))-1,5-dimethyl-3-(2-methylpropyl)-1,3-dihydrothiopheno[2,3-d]pyrimidine-2,4-dione]
158 nM | Cc1c(-c2ccoc2)sc2[nH]c(=O)n(CC(C)C)c(=O)c12 [XXX, 6-(3-furyl)-5-methyl-3-(2-methylpropyl)-1,3-dihydrothiopheno[2,3-d]pyrimidine-2,4-dione]
49 nM | C#CCn1c(=O)c2c(C)c(C(=O)OCC)sc2n(C)c1=O [XXVI, ethyl 1,5-dimethyl-2,4-dioxo-3-prop-2-ynyl-1,3-dihydrothiopheno[2,3-d]pyrimidine-6-carboxylate]
110 nM | CCn1c(=O)[nH]c2sc(-c3sccc3C)c(C)c2c1=O [XXXII, 3-ethyl-5-methyl-6-(3-methyl(2-thienyl))-1,3-dihydrothiopheno[2,3-d]pyrimidine-2,4-dione]

Ki | Structure (SMILES)
239 nM | Cc1c(C2=NC[C@@H](C)O2)sc2[nH]c(=O)n(CC(C)C)c(=O)c12 [LVII, 6-((5R)-5-methyl(1,3-oxazolin-2-yl))-5-methyl-3-(2-methylpropyl)-1,3-dihydrothiopheno[2,3-d]pyrimidine-2,4-dione]
529 nM | CCn1c(=O)[nH]c2sc(-c3cccnc3OC)c(C)c2c1=O [LV, 3-ethyl-6-(2-methoxy(3-pyridyl))-5-methyl-1,3-dihydrothiopheno[2,3-d]pyrimidine-2,4-dione]
230 nM | CCn1c(=O)[nH]c2scc(-c3ccc(C)o3)c2c1=O [XXI, 3-ethyl-5-(5-methyl(2-furyl))-1,3-dihydrothiopheno[2,3-d]pyrimidine-2,4-dione]
752 nM | CCn1c(=O)[nH]c2sc(-c3cnn(Cc4ccccc4)c3)c(C)c2c1=O [XVIII, 3-ethyl-5-methyl-6-[1-benzylpyrazol-4-yl]-1,3-dihydrothiopheno[2,3-d]pyrimidine-2,4-dione]
180 nM | CCn1c(=O)[nH]c2sc(-c3ccc[nH]3)c(C)c2c1=O [XXVII, 3-ethyl-5-methyl-6-pyrrol-2-yl-1,3-dihydrothiopheno[2,3-d]pyrimidine-2,4-dione]
119 nM | CC[C@H]1COC(c2sc3c(c2C)c(=O)n(CC(C)C)c(=O)n3C)=N1 [LVIII, 6-((4S)-4-ethyl(1,3-oxazolin-2-yl))-1,5-dimethyl-3-(2-methylpropyl)-1,3-dihydrothiopheno[2,3-d]pyrimidine-2,4-dione]
170 nM | Cc1c(-c2ccco2)sc2[nH]c(=O)n(CC3CC3)c(=O)c12 [XXXVI, 3-(cyclopropylmethyl)-5-methyl-6-(2-furyl)-1,3-dihydrothiopheno[2,3-d]pyrimidine-2,4-dione]
165 nM | Cc1c(-c2cocn2)sc2c1c(=O)n(CC(C)C)c(=O)n2C [XXIV, 1,5-dimethyl-3-(2-propylmethyl)-6-(1,3-oxazol-4-yl)-1,3-dihydrothiopheno[1,3-d]pyrimidine-2,4-dione]
58 nM | CC[C@H]1COC(c2sc3[nH]c(=O)n(CC(C)C)c(=O)c3c2C)=N1 [LVI, 6-((4S)-4-ethyl(1,3-oxazolin-2-yl))-5-methyl-3-(2-methylpropyl)-1,3-dihydrothiopheno[2,3-d]pyrimidine-2,4-dione]
676 nM | CCn1c(=O)[nH]c2sc(C(=O)NC)c(C)c2c1=O [XV, (3-ethyl-5-methyl-2,4-dioxo(1,3-dihydrothiopheno[2,3-d]pyrimidin-6-yl))-n-methylcarboxamide]
150 nM | Cc1c(-c2cccs2)sc2[nH]c(=O)n(C)c(=O)c12 [XXXIII, 3,5-dimethyl-6-(2-thienyl)-1,3-dihydrothiopheno[2,3-d]pyrimidine-2,4-dione]
648 nM | Cc1csc2[nH]c(=O)n(C)c(=O)c12 [XIII, 3,5-dimethyl-1,3-dihydrothiopheno[2,3-d]pyrimidine-2,4-dione]
397 nM | CCn1c(=O)[nH]c2scc(C)c2c1=O [X, 3-ethyl-5-methyl-1,3-dihydrothiopheno[2,3-d]pyrimidine-2,4-dione]
167 nM | CCn1c(=O)[nH]c2sc(-c3nccs3)c(C)c2c1=O [XXXVII, 3-ethyl-5-methyl-6-(1,3-thiazol-2-yl)-1,3-dihydrothiopheno[2,3-d]pyrimidine-2,4-dione]
780 nM | Cc1csc2[nH]c(=O)n(CC(C)C)c(=O)c12 [XIX, 5-methyl-3-(2-methylpropyl)-1,3-dihydrothiopheno[2,3-d]pyrimidine-2,4-dione]
805 nM | CCn1c(=O)[nH]c2sc(-c3nc(Cc4ccccc4)no3)c(C)c2c1=O [XX, 3-ethyl-5-methyl-6-[3-benzyl(1,2,4-oxadiazol-5-yl)]-1,3-dihydrothiopheno[2,3-d]pyrimidine-2,4-dione]
